Measurements from patent US8022091B2, “Triazole derivative” (Taisho Pharmaceutical Co., Ltd., priority 2006, dated 2011).

Target: T1, human Edg-1 (S1P1) (Homo sapiens, UniProt P21453)
T1 construct: expressed in transfected cells; host or cells: HEK-293
Test: S1P1 binding assay: inhibition of [33P]-S1P binding to membrane fraction of HEK-293 cells transferred with the human Edg-1 (S1P1) gene
Settings: for IC50: [33P]-S1P 0.1 nM, human Edg-1 (S1P1) HEK-293 membrane fraction, 1 h at 30° C., read-out: IC50 (concentration at which binding in the absence of the test compound was inhibited by 50%); for inhibition at 10 µM: test compound at 10 μM, inhibition of [33P]-S1P binding to the membrane fraction of HEK-293 cells expressing human Edg-1 (S1P1)
Protocol: The membrane fraction was obtained by treating the cells with a solubilizing buffer (1 mM Tris/HCl, pH 7.2) for 10 minutes on ice, centrifuging at 1000×g for 5 minutes to remove insoluble fractions, and then centrifuging at 40000×g for 30 minutes at 4° C. The resulting membrane fraction was dissolved in a binding buffer (20 mM Tris-HCl, pH 7.4, 100 mM NaCl, 15 mM NaF, 2 mM deoxypyridoxine, 4 mg/mL fatty acid-free BSA), and then [^33P]-S1P (manufactured by ARC, final concentration 0.1 nM) and a DMSO solution (final concentration of the compound 10^−5M, final concentration of DMSO 0.1%) of the test compound were added. Thereafter, the mixture was stirred and then treated for one hour at 30° C. Using a harvester, the membrane fraction was harvested onto unifilter-96 GF/C filter (manufactured by Perkin Elmer), washing was carried out four times with the binding buffer, and the filter was dried. Twenty five μL Microscint 0 (manufactured by Perkin Elmer) was added, and radioactivity was measured using Top Count NXT (manufactured by Packard) to calculate the amount (A) of [^33P]-S1P bound to the membrane fraction at the time when the compound was added.
The same procedure was carried out in the absence of the test compound, and the amount (B) of [^33P]-S1P bound was calculated. Further, the same procedure was carried out in the absence of the test compound by use of HEK-293 cells to which no Edg-1 (S1P1) gene was introduced, and the background amount (C) of [^33P]-S1P bound was calculated.
Inhibition rate (%)=[1−(A−C)/(B−C)]×100
Further, concentrations (IC50) at the time when binding in the absence of the test compound was inhibited by 50% were calculated. The membrane system binding assay was carried out in the presence of test compounds with various concentrations, and the Edg-1 (S1P1) binding inhibition rates were calculated using the equation above. Then, IC50 values were calculated using Origin (Lightstone Corp.), a software for data analysis.

T1 sequence (P21453 whole entry): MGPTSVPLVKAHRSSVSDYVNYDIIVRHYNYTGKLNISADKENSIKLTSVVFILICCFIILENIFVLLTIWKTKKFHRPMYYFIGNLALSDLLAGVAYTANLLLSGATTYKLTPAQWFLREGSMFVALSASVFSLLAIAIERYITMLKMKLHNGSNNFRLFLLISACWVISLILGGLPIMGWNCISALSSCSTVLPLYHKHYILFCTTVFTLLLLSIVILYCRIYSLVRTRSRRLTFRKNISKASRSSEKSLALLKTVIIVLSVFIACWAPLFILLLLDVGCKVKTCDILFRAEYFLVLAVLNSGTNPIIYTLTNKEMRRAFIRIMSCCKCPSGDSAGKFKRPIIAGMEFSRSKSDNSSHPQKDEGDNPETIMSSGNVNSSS

## CCn1c(Oc2cccc(N3CCN(C)CC3)c2)nnc1[C@@H](C)NS(=O)(=O)c1ccc(Cl)c(Cl)c1 [Compound 45, 3,4-Dichloro-N-((R)-1-[4-ethyl-5-[3-(4-methyl-piperazin-1-yl)-phenoxy]-4H-[1,2,4]triazol-3-yl]-ethyl)-benzenesulfonamide]
  IC50: 4.2 nM
  inhibition at 10 µM: 106%

## CCn1c(Sc2ccc(C)cc2)nnc1[C@@H](C)NS(=O)(=O)c1ccc(Cl)c(Cl)c1 [Compound 55, 3,4-Dichloro-N-[(R)-1-(4-ethyl-5(4-methylbenzenesulfanyl)-4H-[1,2,4]triazol-3-yl)-ethyl]-benzenesulfonamide]
  inhibition at 10 µM: 80.6%

## CCn1c(Cc2ccc(C)cc2)nnc1[C@@H](C)NS(=O)(=O)c1ccc(Cl)c(Cl)c1 [Compound 56, 3,4-Dichloro-N-[(R)-1-[4-ethyl-5(4-methylbenzyl)-4H-[1,2,4]triazol-3-yl]-ethyl]-benzenesulfonamide]
  inhibition at 10 µM: 88.3%

## CCn1c(Nc2ccc(C)cc2)nnc1[C@@H](C)NS(=O)(=O)c1ccc(Cl)c(Cl)c1 [Compound 61, N-[(1R)-1-(4-Ethyl-5(4-methylphenylamino)-4H-[1,2,4]triazol-3-yl)ethyl]3,4-dichlorobenzenesulfonamide]
  IC50: 39 nM
  inhibition at 10 µM: 102%

## CCn1c(Oc2cccc(N3CCC4(CC3)OCCO4)c2)nnc1[C@@H](C)NS(=O)(=O)c1ccc(Cl)c(Cl)c1 [Compound 87, 3,4-Dichloro-N-((R)-1-[5-[3-(1,4-dioxa-8-aza-spiro[4.5]decan-8-yl)-phenoxy]-4-ethyl-4H-[1,2,4]triazol-3-yl]-ethyl)-benzenesulfonamide]
  IC50: ≤ 10 nM
  inhibition at 10 µM: 99.9%

## CCn1c(Oc2cccc(N3CCC(=O)CC3)c2)nnc1[C@@H](C)NS(=O)(=O)c1ccc(Cl)c(Cl)c1 [Compound 88, 3,4-Dichloro-N-((R)-1-[4-ethyl-5-[3-(4-oxo-piperidin-1-yl)-phenoxy]-4H-[1,2,4]triazol-3-yl]-ethyl)-benzenesulfonamide]
  IC50: 5.4 nM
  inhibition at 10 µM: 99.5%

## CCn1c(Oc2cccc(N(CCOC)CCOC)c2)nnc1[C@@H](C)NS(=O)(=O)c1ccc(Cl)c(Cl)c1 [Compound 100]
  IC50: 18.5 nM
  inhibition at 10 µM: 110%

## CCn1c(Oc2ccc(F)cc2)nnc1[C@@H](C)N(C)S(=O)(=O)c1ccc(Cl)c(Cl)c1 [Compound 115, 3,4-Dichloro-N-[(R)-1-[4-ethyl-5-(4-fluorophenoxy)-4H-[1,2,4]triazol-3-yl]-ethyl]-N-methyl-benzenesulfonamide]
  inhibition at 10 µM: 81.8%

## CCn1c(Oc2ccc(F)cc2)nnc1[C@@H](C)NS(=O)(=O)c1ccc(C)c(Cl)c1 [Compound 127]
  inhibition at 10 µM: 94.4%

## CCn1c(Oc2ccc3cc[nH]c3c2)nnc1[C@@H](C)NS(=O)(=O)c1ccc2c(Cl)cccc2c1 [Compound 151]
  IC50: ≤ 10 nM

## CCn1c(Oc2ccc(F)cc2)nnc1[C@@H](C)NS(=O)(=O)c1ccc(C(C)=O)cc1 [Compound 154]
  inhibition at 10 µM: 92.3%

## CCn1c(Oc2ccc(F)cc2)nnc1[C@@H](C)NS(=O)(=O)c1ccccc1 [Compound 155]
  inhibition at 10 µM: 59.9%

## CCn1c(Oc2ccc(F)cc2)nnc1[C@@H](C)NS(=O)(=O)c1ccc(Br)cc1 [Compound 156]
  inhibition at 10 µM: 107%

## CCn1c(Oc2ccc(F)cc2)nnc1[C@@H](C)NS(=O)(=O)c1ccc(C(C)(C)C)cc1 [Compound 157]
  inhibition at 10 µM: 74.6%

## CCn1c(Oc2ccc(F)cc2)nnc1[C@@H](C)NS(=O)(=O)c1cccc(Br)c1 [Compound 160]
  inhibition at 10 µM: 96.9%

## CCn1c(Oc2ccc(F)cc2)nnc1[C@@H](C)NS(=O)(=O)c1ccc(Cl)cc1 [Compound 162]
  inhibition at 10 µM: 109%

## CCn1c(Oc2ccc(F)cc2)nnc1[C@@H](C)NS(=O)(=O)c1cccc(C#N)c1 [Compound 165]
  inhibition at 10 µM: 72.9%

## CCn1c(Oc2ccc(F)cc2)nnc1[C@@H](C)NS(=O)(=O)c1cc(C)c(Cl)cc1C [Compound 167]
  inhibition at 10 µM: 113%

## CCn1c(Oc2ccc(F)cc2)nnc1[C@@H](C)NS(=O)(=O)c1cc(Cl)ccc1Cl [Compound 168]
  inhibition at 10 µM: 68.4%

## CCn1c(Oc2ccc(F)cc2)nnc1[C@@H](C)NS(=O)(=O)c1ccc(OC)c(OC)c1 [Compound 170]
  inhibition at 10 µM: 76%

## CCc1ccc(S(=O)(=O)N[C@H](C)c2nnc(Oc3ccc(F)cc3)n2CC)cc1 [Compound 172]
  inhibition at 10 µM: 92%

## CCn1c(Oc2ccc(F)cc2)nnc1[C@@H](C)NS(=O)(=O)c1ccc(F)cc1 [Compound 173]
  inhibition at 10 µM: 97.2%

## CCn1c(Oc2ccc(F)cc2)nnc1C(C)(C)NS(=O)(=O)c1c(C)cc(C)cc1C [Compound 174]
  inhibition at 10 µM: 52.5%

## CCn1c(Oc2ccc(F)cc2)nnc1[C@@H](C)NS(=O)(=O)c1ccc(OC)cc1 [Compound 175, N-[(R)-1-[4-Ethyl-5-(4-fluorophenoxy)-4H-[1,2,4]triazol-3-yl]-ethyl]-4-methoxybenzenesulfonamide]
  inhibition at 10 µM: 103%

## CCn1c(Oc2ccc(F)cc2)nnc1[C@@H](C)NS(=O)(=O)c1ccc(S(C)(=O)=O)cc1 [Compound 177]
  inhibition at 10 µM: 55.3%

## CCn1c(Oc2ccc(F)cc2)nnc1[C@@H](C)NS(=O)(=O)c1cccc2ccccc12 [Compound 179]
  inhibition at 10 µM: 83%

## CCn1c(Oc2ccc(F)cc2)nnc1[C@@H](C)NS(=O)(=O)CCc1cccc2ccccc12 [Compound 180]
  inhibition at 10 µM: 94.6%

## CCn1c(Oc2ccc(F)cc2)nnc1[C@@H](C)NS(=O)(=O)c1c(F)c(F)c(F)c(F)c1F [Compound 181]
  inhibition at 10 µM: 50.4%

## CCn1c(Oc2ccc(F)cc2)nnc1[C@@H](C)NS(=O)(=O)c1ccc(I)cc1 [Compound 182]
  inhibition at 10 µM: 109%

## CCn1c(Oc2ccc(F)cc2)nnc1[C@@H](C)NS(=O)(=O)/C=C/c1ccccc1 [Compound 183]
  inhibition at 10 µM: 92.8%

## CCn1c(Oc2ccc(F)cc2)nnc1[C@@H](C)NS(=O)(=O)c1cc(Cl)c(Cl)cc1Cl [Compound 184]
  inhibition at 10 µM: 97.3%

## CCn1c(Oc2ccc(F)cc2)nnc1[C@@H](C)NS(=O)(=O)c1ccc(C)cc1 [Compound 186]
  inhibition at 10 µM: 86.8%

## CCn1c(Oc2ccc(F)cc2)nnc1[C@@H](C)NS(=O)(=O)c1cccc(C(F)(F)F)c1 [Compound 188]
  inhibition at 10 µM: 107%

## CCn1c(Oc2ccc(F)cc2)nnc1[C@@H](C)NS(=O)(=O)c1ccccc1C [Compound 189]
  inhibition at 10 µM: 99.7%

## CCn1c(Oc2ccc(F)cc2)nnc1[C@@H](C)NS(=O)(=O)c1ccc(OC(F)(F)F)cc1 [Compound 190]
  inhibition at 10 µM: 87.9%

## C=Cc1ccc(S(=O)(=O)N[C@H](C)c2nnc(Oc3ccc(F)cc3)n2CC)cc1 [Compound 191]
  inhibition at 10 µM: 96.9%

## CCn1c(Oc2ccc(F)cc2)nnc1[C@@H](C)NS(=O)(=O)c1cccc(C)c1 [Compound 192]
  inhibition at 10 µM: 95.2%

## CCn1c(Oc2ccc(F)cc2)nnc1[C@@H](C)NS(=O)(=O)c1ccc2c(c1)CN(C(=O)C(F)(F)F)CC2 [Compound 194]
  inhibition at 10 µM: 80.7%

## CCn1c(Oc2ccc(F)cc2)nnc1[C@@H](C)NS(=O)(=O)c1cc(C)ccc1C [Compound 195]
  inhibition at 10 µM: 90.1%

## CCn1c(Oc2ccc(F)cc2)nnc1[C@@H](C)NS(=O)(=O)c1ccc(-c2csnn2)s1 [Compound 196]
  inhibition at 10 µM: 65.6%

## CCn1c(Oc2ccc(F)cc2)nnc1[C@@H](C)NS(=O)(=O)c1ccc(C(=O)OC)n1C [Compound 201]
  inhibition at 10 µM: 84.3%

## CCCc1ccc(S(=O)(=O)N[C@H](C)c2nnc(Oc3ccc(F)cc3)n2CC)cc1 [Compound 206]
  inhibition at 10 µM: 85.4%

## CCn1c(Oc2ccc(F)cc2)nnc1[C@@H](C)NS(=O)(=O)c1ccc(Cl)c(Cl)c1Cl [Compound 207]
  inhibition at 10 µM: 108%

## CCn1c(Oc2ccc(F)cc2)nnc1C(C)(C)NS(=O)(=O)c1c(C)c(C)cc(C)c1C [Compound 208]
  inhibition at 10 µM: 80.2%

## CCn1c(Oc2ccc(F)cc2)nnc1[C@@H](C)NS(=O)(=O)c1cccc(Cl)c1Cl [Compound 209]
  inhibition at 10 µM: 91.4%

## CCn1c(Oc2ccc(F)cc2)nnc1[C@@H](C)NS(=O)(=O)c1cc(C(F)(F)F)cc(C(F)(F)F)c1 [Compound 212]
  inhibition at 10 µM: 69.7%

## CCn1c(Oc2ccc(F)cc2)nnc1[C@@H](C)NS(=O)(=O)c1cc(Cl)cc(Cl)c1 [Compound 213]
  inhibition at 10 µM: 102%

## CCn1c(Oc2ccc(F)cc2)nnc1[C@@H](C)NS(=O)(=O)c1cccc(Cl)c1C [Compound 214]
  inhibition at 10 µM: 102%

## CCn1c(Oc2ccc(F)cc2)nnc1[C@@H](C)NS(=O)(=O)c1cccc(OC)c1 [Compound 215]
  inhibition at 10 µM: 91.4%

## CCn1c(Oc2ccc(F)cc2)nnc1[C@@H](C)NS(=O)(=O)c1cc(F)c(Br)cc1F [Compound 216]
  inhibition at 10 µM: 88.9%

## CCn1c(Oc2ccc(F)cc2)nnc1[C@@H](C)NS(=O)(=O)c1cc(Br)ccc1OC [Compound 218]
  inhibition at 10 µM: 74.7%
